Laboratory results: patent publication US4707487A, “(4-imidazolyl)piperidines, the preparation thereof and their application in therapy” (Institut National de la Sante et de la Recherche Medicale …, priority 1985, dated 1987)
pKi: −log10 of the molar value. One block for each molecule: values may come before it.

Tests used:
[1] = tested on: rate of renewal of histamine in the synaptosomal fraction (P2) of rat cerebral cortex; test: Effects of H3 antagonists on the rate of renewal of cerebral histamine (depletion after synthesis blocking with α-FMH); type: in vivo, rat (male); set-up: Depletion by α-FMH: unit not given beside the values
[2] = Acute toxicity: mortality in mice after a single administration of increasing doses; details: mouse, in vivo, after one hour
Protocol: The determination of mortality in mice is observed folowing a single intravenous administration of increasing doses of compounds to be tested.
The L.D.50 for all the compounds studied is […] 100 mg/kg […]. For example, that for the derivative No. 1 is 100 mg/kg after one hour.

[3] = tested on: rate of renewal of histamine in the synaptosomal fraction (P2) of rat cerebral cortex; test: Effects of H3 antagonists on the rate of renewal of cerebral histamine (depletion after synthesis blocking with α-FMH); type: in vivo, rat (male); set-up: Depletion by α-FMH: unit not given beside the values; remark: listed apart in the source
Protocol: III. EFFECTS OF H3 A[…] THE RATE OF RENEWAL OF CEREBRAL HISTAMINE
Male rats weighing from 80 to 100 g simultaneously receive intraperitoneally α-fluoromethyl histidine and the compound to be tested, each at a dose of 20 mg/kg. One hour later, the animals are sacrificed and the cerebral cortex rapidly removed and homogenized in 10 volumes of 0.32 M sucrose. The homogenate thereby obtained is subjected to two successive centrifugations, the first at 10^4 g.min and second at 2×10^5 g.min to sediment the fraction enriched in synaptosomes (Whittaker, Michaelson and Kirkland, Biochem. J., 1967, 90, 293-305). After resuspension of this fraction in 10 volumes of 20 mM phosphate (K2 /K) buffer, PH 7.8, and treatment with ultrasound, an aliquot portion is frozen for subsequent assay of histidine decarboxylase activity (Baudry, Martres and Schwartz, J. Neurochem., 21, 1301-1309, 1973), and another portion is heated for 10 minutes at 95° C. and then centrifuged at 10^4 g.min. The endogenous histamine is determined in the supernatant by a radioenzymatic assay, which enables the histamine to be converted to tritiated N^w methylhistamine by means of an enzyme purified from rat kidney, histamine N-methyltransferase, and a tritiated methyl radical donor, S-adenosylmethionine. The N^w -methylhistamine thereby formed is selectively extracted in an alkaline medium into chloroform, before measurement of the tritiated product by liquid scintillation (Taylor and Snyder, J. Pharmacol. Exp. Ther., 137, 619-633, 1971).
In the controls, these rates correspond to 15 ng/g/h, compared with approximately 30 ng/g/h after treatment with an H3 -receptor antagonist (Table 3).

[4] = molecular target: T1, H3 self-receptors of rat brain (Rattus norvegicus, UniProt Q9QYN8); test: cell-based
Text: (§1) The method described by Arrang et al., (Nature 1983, 302: 838-837) is used on sections (0.3 mm thick) of cerebral cortex of male Wistar rats (180-200 g) (IFFA-CREDO, France).

[5] = molecular target: T1, H3 self-receptors of rat brain; test: Antagonism of histamine stimulation of the H3 receptors controlling the release of (3H)histamine induced by depolarization of sections of rat brain
Text: as §1

[6] = α-FMH 20 mg/kg + test compound 2 mg/kg
[7] = α-FMH 20 mg/kg + test compound 20 mg/kg
[8] = α-FMH 20 mg/kg + test compound 20 mg/kg, * p < 0.01 with respect to α-FMH alone
[9] = α-FMH 20 mg/kg + test compound 20 mg/kg, where marked *** p < 0.05 with respect to α-FMH
[10] = read-out: Apparent dissociation constant (Ki) as antagonist of histamine on the H3 self-receptors of rat brain
[11] = α-FMH alone 20 mg/kg, i.p., 1 h, rat cerebral cortex

T1 sequence (Q9QYN8 whole entry): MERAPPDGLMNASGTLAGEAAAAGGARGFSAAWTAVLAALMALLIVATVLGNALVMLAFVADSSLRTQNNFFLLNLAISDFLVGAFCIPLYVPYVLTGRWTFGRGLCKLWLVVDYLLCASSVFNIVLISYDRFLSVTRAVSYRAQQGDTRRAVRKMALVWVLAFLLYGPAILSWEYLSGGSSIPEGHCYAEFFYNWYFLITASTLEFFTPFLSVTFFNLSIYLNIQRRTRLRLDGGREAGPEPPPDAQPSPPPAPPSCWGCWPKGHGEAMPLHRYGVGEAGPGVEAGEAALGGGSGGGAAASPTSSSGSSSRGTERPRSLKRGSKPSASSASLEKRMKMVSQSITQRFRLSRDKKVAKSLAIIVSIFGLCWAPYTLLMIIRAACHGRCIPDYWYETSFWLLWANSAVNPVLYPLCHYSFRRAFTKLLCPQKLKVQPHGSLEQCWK

Structure (SMILES): S=C(NC1CCCCC1)N1CCC(c2c[nH]cn2)CC1 [Example 1]
histamine level in the synaptosomal fraction ([1]; administered alone at a dose of 20 mg/kg): significant fall in the histamine level in the synaptosomal fraction | Depletion by α-FMH ([1]; test compound alone 20 mg/kg, no α-FMH): 12.3 ± 3.7 | Histamine (level in the synaptosomal fraction P2) ([1]; test compound alone 20 mg/kg, no α-FMH, ** p < 0.03 with the untreated animals): 39.3 ± 2.1 | Depletion by α-FMH [1, 6]: 28.4 ± 4.0 | Depletion by α-FMH, change (in brackets) [1, 6]: +96% | Histamine (level in the synaptosomal fraction P2) ([1]; α-FMH 20 mg/kg + test compound 2 mg/kg, * p < 0.01 with respect to α-FMH alone): 23.2 ± 2.7 | LD50 at 1 h [2]: 100 mg/kg | Depletion by α-FMH, change (in brackets) [3, 7]: +74% | Histamine (level in the synaptosomal fraction P2) [3, 8]: 26.4 ± 1.4 | Depletion by α-FMH [3, 9]: 25.2 ± 3.3 | pKi [4]: 8.30

Structure (SMILES): O=C(NC1CCCCC1)N1CCC(c2cn(C(=O)NC3CCCCC3)cn2)CC1 [Example 2]
pKi [5]: 7.59

Structure (SMILES): O=C(NC1CCCCC1)N1CCC(c2c[nH]cn2)CC1 [Example 3]
Depletion by α-FMH, change (in brackets) [3, 7]: +84% | Histamine (level in the synaptosomal fraction P2) [3, 8]: 24.9 ± 1.2 | Depletion by α-FMH [3, 9]: 26.7 ± 3.2 | pKi [5]: 7.39

Structure (SMILES): O=C(c1ccc(N2CCC(c3c[nH]cn3)CC2)cc1)C1CC1 [Example 4]
pKi [5]: 7.43

pKi [4]: 7.52
Structure (SMILES): S=C(NC12CC3CC(CC(C3)C1)C2)N1CCC(c2c[nH]cn2)CC1 [Example 7]

Structure (SMILES): O=C(Nc1ccccc1)N1CCC(c2c[nH]cn2)CC1 [Example 9]
pKi [4]: 6.77

pKi [4]: 7.64
Structure (SMILES): O=C(Nc1cccc(F)c1)N1CCC(c2c[nH]cn2)CC1 [Example 10]

pKi [4]: 7.28
Structure (SMILES): Cc1cccc(NC(=O)N2CCC(c3c[nH]cn3)CC2)c1 [Example 11]

pKi [4]: 7.08
Structure (SMILES): Cc1cccc(NC(=O)N2CCC(c3cn(C(=O)Nc4cccc(C)c4)cn3)CC2)c1 [Example 16]

pKi [4]: 7.66
Structure (SMILES): CC(NC(=O)N1CCC(c2cn(C(=O)NC(C)c3ccccc3)cn2)CC1)c1ccccc1 (stereo not shown) [Example 20]

pKi [4]: 6.30
Structure (SMILES): Cc1[nH]cnc1C1CCN(CCCn2c(=O)[nH]c3ccccc32)CC1 [Example 39]

Structure (SMILES): c1ccc(OCCN2CCC(c3c[nH]cn3)CC2)cc1 [Example 40]
pKi [5]: 7.17

pKi [4]: 8.00
Structure (SMILES): CC(NC(=O)N1CCC(c2c[nH]cn2)CC1)c1ccccc1 (stereo not shown) [Example 56]

Structure (SMILES): CC(NC(=N)N1CCC(c2c[nH]cn2)CC1)C1CC1 (stereo not shown) [Example 57]
pKi [5, 10]: 7.92

Structure (SMILES): S=C(NC1CCCCC1)N1CCCC(c2c[nH]cn2)C1 (stereo not shown) [Example 58]
pKi [5, 10]: 7.40

Structure (SMILES): NCCc1c[nH]cn1 [histamine, reference compound]
inhibition at 1 µM ([5]; read-out: inhibition of (3H)histamine release by exogenous histamine): ~60%

Structure (SMILES): N[C@@](CF)(Cc1c[nH]cn1)C(=O)O [α-FMH, α-fluoromethylhistidine, reference compound]
Depletion by α-FMH [3, 11]: 14.5 ± 4.0 | Histamine (level in the synaptosomal fraction P2) [3, 11]: 37.1 ± 2.7
